Measurements published in US6280768A, “Berberine alkaloids as a treatment for chronic protozoally induced diarrhea” (PRM Pharmaceuticals, Inc., priority 1997, dated 2001).
Like-named read-outs stand apart in the source and are kept apart here.

Columns and labels:
microsporidia [1] = experiment: Protoberberines in a hamster animal model of microsporidial chronic diarrhea (Example 5); assay type: in vivo; details: 52 mg/kg/day oral; for condition of the hamsters / diarrhea: after 10 days; for presence of microsporidia in intestinal biopsy: following therapy
Method: (§1) Ten hamsters suffering from chronic diarrhea caused by microsporidia are randomized into two groups of 5 hamsters. One group receives the protoberberine palmatine and the second group receives the protoberberine dihydroberberine. The protoberberines are administered orally at a dose rate of 52 mg/kg/day for ten (10) days.

diarrhea = experiment: Prophylactic use of berberines in HIV infected patients (Example 7); assay type: in vivo, human; details: low dose of Example 2, two months, 25 patients
Method: Twenty five (25) HIV infected patients, 18 years of age or older, not presenting with chronic diarrhea, are selected. Blood specimens are evaluated to confirm that each patient is HIV seropositive.
Each of the twenty five (25) patients receives a treatment with berberine according to the low dose of Example 2 for a period of two months.

[2] = oral, high doses; cited from earlier work
Cryptosporidium parvum = details: in vivo; cited from earlier work
microsporidia [3] = experiment: Protoberberines in a mouse animal model of microsporidial chronic diarrhea (Example 6); assay type: in vivo; details: 52 mg/kg/day oral; for condition of the mice / diarrhea: after 10 days; for presence of microsporidia in intestinal biopsy: following therapy
Method: as §1, with “mice” for “hamsters”, “mice.” for “hamsters.”, “jatrorrhizine.” for “dihydroberberine.”

T.vaginalis = experiment: In vitro growth inhibition of Trichomonas vaginalis; assay type: cell-based; details: for activity at 30 µg/mL / activity at 62 µg/mL / activity at 125 µg/mL / activity at 250 µg/mL / activity at 500 µg/mL / activity at 1000 µg/mL: 48 h; for activity at 30 µg/mL: 30 μg/ml; for activity at 62 µg/mL: 62 μg/ml; for activity at 125 µg/mL: 125 μg/ml; for activity at 250 µg/mL: 250 μg/ml; for activity at 500 µg/mL: 500 μg/ml
Source text: (§2) The protozoa tested were established strains of 3 extracellular protozoan parasites; (1) Giardia lamblia, (2) Trichomonas vaginalis, (3) Entamoeba histolytica, and the intracellular microsporidian parasite (4) Encephalitozoon intestinalis.
(§3) Culture conditions and media for (1)-(3) and methods for assaying drug susceptibility were as described in Katiyar, S K and Edlind T D, Enhanced Antiparasitic Activity of Lipophilic Tetracyclines: Role of Uptake, Antimicrob. Agents Chemother., vol. 35:2198-2202 (1991), incorporated herein by reference.
(§4) Cultures of the extracellular parasites were started from frozen stocks and passaged several times over a 2-3 week period to ensure viability, maximal growth rate, and lack of contamination. On day 1 of the assay, log phase cultures were diluted to 5×10^4 cells/ml in fresh medium and aliquoted to 2 ml vials, which were filled to maintain anaerobic conditions. The berberine was dissolved and diluted in water to various concentrations and then added to the cultures. "negative controls" received the vehicle alone.
(§5) Cultures were incubated at 37° C. with slow rotation. After 48 hours (for T. vaginalis and G. lamblia) and 72 hours (for E. histolytica), cell numbers were determined using a hemocytometer. The concentration of compound inhibiting growth 50% (IC50) relative to controls was estimated from dose response plots. The assays were repeated at least twice.
(§6) Initially, the berberine was tested over a wide range of concentrations (0.1, 1, 10, 100 and 1000 μg/ml).

E. intestinalis = experiment: In vitro growth (spore numbers) of E. intestinalis in infected Vero cells; assay type: cell-based, Encephalitozoon intestinalis
Source text: as §2
Cultures of E. intestinalis infected African green monkey kidney (Vero) cells were kindly provided by G. S. Visvesvara, CDC, Atlanta, Ga. The E. intestinalis was originally isolated from the urine of an AIDS patient (J. Clin. Microbiol. 33:930-936, 1995).
Cells were grown in T25 flasks at 37° C. in a humidified CO2 incubator, and subcultured when confluent (every 3-4 days). The medium was MEM supplemented with Earle's salts, L-glutamine, 5% heat-inactivated fetal bovine serum, fungizone (2 μg/ml) and gentamicin (50 μg/ml). E. intestinalis spores were prepared by centrifugation of infected cell medium (3-4 days old) at 2000×g for 15 min, followed by suspension in fresh medium to give 1-20×10^4 spores/ml (determined with a hemocytometer). […]
Every 72-96 h after infection, the medium was completely removed, discarded, and replaced with fresh medium plus berberine. The medium from the 4th change (2-3 weeks post infection) was collected into tubes and spore numbers were determined in a hemocytometer. […] Consequently, spore numbers after 3-4 medium changes provided a quantitative measure of the effects of berberine on microsporidia growth.

E.histolytica = experiment: In vitro growth inhibition of Entamoeba histolytica; assay type: cell-based; details: for activity at 30 µg/mL: 30 μg/ml; for activity at 125 µg/mL: 125 μg/ml; for activity at 500 µg/mL: 500 μg/ml; for activity at 1000 µg/mL: 1000 μg/ml
Source text: as §2, §3, §4, §5, §6

G.lamblia = experiment: In vitro growth inhibition of Giardia lamblia; assay type: cell-based; details: Giardia duodenalis; for activity at 30 µg/mL / activity at 62 µg/mL / activity at 125 µg/mL / activity at 250 µg/mL / activity at 500 µg/mL / activity at 1000 µg/mL: 48 h; for activity at 30 µg/mL: 30 μg/ml; for activity at 62 µg/mL: 62 μg/ml; for activity at 125 µg/mL: 125 μg/ml; for activity at 250 µg/mL: 250 μg/ml; for activity at 500 µg/mL: 500 μg/ml; for activity at 1000 µg/mL: 1000 μg/ml
Source text: as §2, §3, §4, §5, §6

cryptosporidia = details: cited from earlier work
[4] = growth, 48 hours, estimated from dose response plots

SMILES: COc1ccc2c(c1OC)CN1CCc3cc4c(cc3C1=C2)OCO4 [dihydroberberine]
- condition of the hamsters (microsporidia [1]): improved
- diarrhea (microsporidia [1]): none of the hamsters have diarrhea
- presence of microsporidia in intestinal biopsy (microsporidia [1]): does not reveal the presence of microsporidia

SMILES: COc1ccc2cc3[n+](cc2c1OC)CCc1cc2c(cc1-3)OCO2 [berberine, 5,6-Dihydro-9,10-dimethoxybenzo[g]-1,3-benzodioxolo[5,6-a]quinolizinium]
- tolerability / adverse reactions (diarrhea): all of the patients tolerate the treatment well with no or minimal adverse reactions
- toxicity [2]: nontoxic at high doses

SMILES: NC[C@@H]1O[C@H](O[C@H]2[C@@H](O)[C@H](O[C@@H]3[C@@H](O)[C@H](N)C[C@H](N)[C@H]3O[C@H]3O[C@H](CO)[C@@H](O)[C@H](O)[C@H]3N)O[C@@H]2CO)[C@H](N)[C@@H](O)[C@@H]1O [paromomycin]
- relapse after cessation of treatment (Cryptosporidium parvum): common

SMILES: COc1cc2c(cc1O)CC[n+]1cc3c(OC)c(OC)ccc3cc1-2 [jatrorrhizine]
- condition of the mice (microsporidia [3]): improved
- diarrhea (microsporidia [3]): none of the mice have diarrhea
- presence of microsporidia in intestinal biopsy (microsporidia [3]): does not reveal the presence of microsporidia

SMILES: COc1ccc2cc3[n+](cc2c1OC)CCc1cc2c(cc1-3)OCO2.Cl [berberine hydrochloride, 5,6-Dihydro-9,10-dimethoxybenzo[g]-1,3-benzodioxolo[5,6-a]quinolizinium hydrochloride]
- activity at 30 µg/mL (T.vaginalis; Exp. 1): 93%
- activity at 30 µg/mL (T.vaginalis; Exp. 2): 99%
- activity at 30 µg/mL (T.vaginalis; Exp. 3): 96%
- activity at 62 µg/mL (T.vaginalis; Exp. 1): 90%
- activity at 62 µg/mL (T.vaginalis; Exp. 2): 98%
- activity at 62 µg/mL (T.vaginalis; Exp. 3): 98%
- activity at 125 µg/mL (T.vaginalis; Exp. 1): 59%
- activity at 125 µg/mL (T.vaginalis; Exp. 2): 60%
- activity at 125 µg/mL (T.vaginalis; Exp. 3): 60%
- activity at 250 µg/mL (T.vaginalis; Exp. 1): 20%
- activity at 250 µg/mL (T.vaginalis; Exp. 2): 28%
- activity at 250 µg/mL (T.vaginalis; Exp. 3): 45%
- activity at 500 µg/mL (T.vaginalis; Exp. 1): 2%
- activity at 500 µg/mL (T.vaginalis; Exp. 2): 3%
- activity at 500 µg/mL (T.vaginalis; Exp. 3): 22%
- activity at 1000 µg/mL (T.vaginalis; 1000 μg/ml, Exp. 1, read-out: % growth): 1%
- activity at 1000 µg/mL (T.vaginalis; 1000 μg/ml, Exp. 2, read-out: % growth): 1%
- activity at 1000 µg/mL (T.vaginalis; read-out: % growth, 1000 μg/ml, Exp. 3): 6.8%
- IC50 (T.vaginalis; [4]): 170 µg/mL
- activity against the microsporidium E. intestinalis (E. intestinalis): showed activity against the microsporidium E. intestinalis
- activity at 30 µg/mL (E.histolytica; 72 h, Exp. 1): 102%
- activity at 30 µg/mL (E.histolytica; 72 h, Exp. 2): 101%
- activity at 62 µg/mL (E.histolytica; 72 h, 62 μg/ml, Exp. 2): 90%
- activity at 125 µg/mL (E.histolytica; 72 h, Exp. 1): 100%
- activity at 125 µg/mL (E.histolytica; 72 h, Exp. 2): 101%
- activity at 250 µg/mL (E.histolytica; 72 h, 250 μg/ml, Exp. 2): 101%
- activity at 500 µg/mL (E.histolytica; 72 h, Exp. 1): 100%
- activity at 500 µg/mL (E.histolytica; 72 h, Exp. 2): 96%
- activity at 1000 µg/mL (E.histolytica; 72 h, Exp. 1): 72%
- activity at 1000 µg/mL (E.histolytica; 72 h, Exp. 2): 76%
- IC50 (E.histolytica; growth, 72 hours, estimated from dose response plots): > 1000 µg/mL
- activity at 30 µg/mL (G.lamblia; Exp. 1): 99%
- activity at 30 µg/mL (G.lamblia; Exp. 2): 97%
- activity at 62 µg/mL (G.lamblia; Exp. 1): 89%
- activity at 62 µg/mL (G.lamblia; Exp. 2): 85%
- activity at 62 µg/mL (G.lamblia; Exp. 3): 88%
- activity at 125 µg/mL (G.lamblia; Exp. 1): 79%
- activity at 125 µg/mL (G.lamblia; Exp. 2): 69%
- activity at 125 µg/mL (G.lamblia; Exp. 3): 75%
- activity at 250 µg/mL (G.lamblia; Exp. 1): 63%
- activity at 250 µg/mL (G.lamblia; Exp. 2): 59%
- activity at 250 µg/mL (G.lamblia; Exp. 3): 52%
- activity at 500 µg/mL (G.lamblia; Exp. 1): 40%
- activity at 500 µg/mL (G.lamblia; Exp. 2): 44%
- activity at 500 µg/mL (G.lamblia; Exp. 3): 32%
- activity at 1000 µg/mL (G.lamblia; Exp. 1): 9%
- activity at 1000 µg/mL (G.lamblia; Exp. 2): 20%
- activity at 1000 µg/mL (G.lamblia; Exp. 3): 5%
- IC50 (G.lamblia; [4]): 350 µg/mL

SMILES: C[C@@H](O)[C@@H]1NC(=O)[C@H](CCCCN)NC(=O)[C@@H](Cc2c[nH]c3ccccc23)NC(=O)[C@H](Cc2ccccc2)NC(=O)[C@@H](NC(=O)[C@H](N)Cc2ccccc2)CSSC[C@@H](C(=O)N[C@H](CO)[C@@H](C)O)NC1=O [octreotide]
- control of gastrointestinal secretion (cryptosporidia; AIDS patients): control the voluminous gastrointestinal secretion
- return of diarrhea (cryptosporidia; following cessation of treatment): diarrhea promptly returns

SMILES: COc1cc2c(cc1OC)-c1cc3ccc(OC)c(OC)c3c[n+]1CC2 [palmatine]
- condition of the mice (microsporidia [3]): improved
- diarrhea (microsporidia [3]): none of the mice have diarrhea
- presence of microsporidia in intestinal biopsy (microsporidia [3]): does not reveal the presence of microsporidia
- condition of the hamsters (microsporidia [1]): improved
- diarrhea (microsporidia [1]): none of the hamsters have diarrhea
- presence of microsporidia in intestinal biopsy (microsporidia [1]): does not reveal the presence of microsporidia
